The values below come from patent publication US9833497B2, “Human originated EGF domain proteins and use of the same” (CHENGDU SOURCEBIO LIMITED-LIABILITY COMPANY, priority 2013, dated 2017).

A word on the MIC: it is the least concentration at which growth counts as inhibited. Low readings indicate greater potency, high ones weaker potency.

What all share (assay type): cell-based
The test system of one assay is E. coli DH5α. The experiment in a line: Antibacterial activity: MIC and growth curve against E. coli DH5α in 96-well plate. Particulars: minimal inhibitory concentration against E. coli DH5α; 96-well plate, 5×10^5 CFU/mL, 37° C., judged after 8 h. In outline: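 MIC taken as lowest protein level with no bacterial growth, tracked by A600 every 30 min during 37 °C, 175 rpm culture. Two-fold protein series 50-12.5 μg/mL final, triplicate wells, against 5×10^5 CFU/mL of LB-washed mid-log cells.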

For a further assay, the system named is E. coli BL21. The assay is described as follows: MIC against Gram-negative bacteria: E. coli BL21. As to conditions: 5×10^5 CFU/mL. The method, boiled down:
(§1)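 Purified recombinant human EGF domain proteins are tested by broth dilution in LB against a 5×10^5 CFU/mL inoculum, with two-fold serial dilutions run in triplicate. Plates are incubated at 37° C with shaking, and the MIC is read as the lowest protein concentration without growth.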

The subject of another assay is Pseudomonas aeruginosa. The experiment in a line: MIC against Gram-negative bacteria: Pseudomonas aeruginosa. As to conditions: 5×10^5 CFU/mL. In outline: as §1
In the next assay the test system is Klebsiella pneumonia. The assay is described as follows: MIC against Gram-negative bacteria: Klebsiella pneumonia. Particulars: 5×10^5 CFU/mL. In outline: as §1
A further assay has as its system Enterobacter cloacae. The assay is described as follows: MIC against Gram-negative bacteria: Enterobacter cloacae. As to conditions: 5×10^5 CFU/mL. In outline: as §1
For another assay, the system named is Aeromonas hydrophila. The experiment in a line: MIC against Gram-negative bacteria: Aeromonas hydrophila. Particulars: 5×10^5 CFU/mL. The method, boiled down: as §1
The test system of a further assay is Citrobacter diversus. The experiment in a line: MIC against Gram-negative bacteria: Citrobacter diversus. Particulars: 5×10^5 CFU/mL. In outline:
as §1

The subject of a further assay is Moraxella catarrhalis. The experiment in a line: MIC against Gram-negative bacteria: Moraxella catarrhalis. As to conditions: 5×10^5 CFU/mL. In outline: as §1
A further assay has as its system Proteus mirabilis. The assay is described as follows: MIC against Gram-negative bacteria: Proteus mirabilis. Particulars: 5×10^5 CFU/mL. In outline: as §1
The next assay relates to Proteus vulgaris. The assay is described as follows: MIC against Gram-negative bacteria: Proteus vulgaris. Particulars: 5×10^5 CFU/mL. In outline: as §1
In the next assay the test system is Serratia marcescens. The assay is described as follows: MIC against Gram-negative bacteria: Serratia marcescens. Particulars: 5×10^5 CFU/mL. In outline: as §1
Where [1] appears, read: Pseudomonas aeruginosa, 96-well plate, 37° C., 10 h.
The mark [2] stands for this setting: Klebsiella pneumonia, 96-well plate, 37° C., 10 h.
[3] abbreviates: Enterobacter cloacae, 96-well plate, 37° C., 10 h.
Setting [4] is: Aeromonas hydrophila, 96-well plate, 37° C., 10 h.
The mark [5] stands for this setting: Citrobacter diversus, 96-well plate, 37° C., 10 h.
The mark [6] stands for this setting: Moraxella catarrhalis, 96-well plate, 37° C., 10 h.
Setting [7] is: Proteus mirabilis, 96-well plate, 37° C., 10 h.
Where [8] appears, read: Proteus vulgaris, 96-well plate, 37° C., 10 h.
Where [9] appears, read: Serratia marcescens, 96-well plate, 37° C., 10 h.

On to “PRT1312 (LQPVCTPPCAPEAVCRAGNSCECSLGYEGDGRVCT; listed as Homo sapiens)”, for which, in the assay with E. coli DH5α, the MIC came to 50 µg/mL. Also, the “MIC against E. coli BL21” value against E. coli BL21 (96-well plate, 37° C., 10 h) was 12.5 µg/mL. The “MIC against P. aeruginosa” value against Pseudomonas aeruginosa (setting [1]) was found to be 50 µg/mL. In addition, in the assay on Klebsiella pneumonia (setting [2]), the “MIC against K. pneumonia” value stood at 12.5 µg/mL. In the assay on Enterobacter cloacae (setting [3]), the “MIC against E. cloacae” value is 50 µg/mL. Further, the “MIC against A. hydrophila” value with Aeromonas hydrophila (setting [4]) was 12.5 µg/mL. The “MIC against C. diversus” value in the assay on Citrobacter diversus (setting [5]) stood at 50 µg/mL. In the assay on Moraxella catarrhalis (setting [6]), the “MIC against M. catarrhalis” value was determined as 12.5 µg/mL. In addition, in the assay on Proteus mirabilis (setting [7]), the “MIC against P. mirabilis” value is 50 µg/mL. In addition, the “MIC against P. vulgaris” value with Proteus vulgaris (setting [8]) came out at 12.5 µg/mL. Further, the “MIC against S. marcescens” value with Serratia marcescens (setting [9]) came out at 50 µg/mL.
Take “PRT1364 (GELKCPNGCSGHGRCVNGQCVCDEGYTGEDCS; listed as Homo sapiens)”: in the assay on E. coli DH5α, the MIC amounted to 25 µg/mL. Further, the “MIC against E. coli BL21” value with E. coli BL21 (10 h cultivation at 37° C.) is 12.5 µg/mL. In addition, the “MIC against P. aeruginosa” value against Pseudomonas aeruginosa (Pseudomonas aeruginosa, 10 h cultivation at 37° C.) amounted to 25 µg/mL. Besides, the “MIC against K. pneumonia” value in the assay on Klebsiella pneumonia (Klebsiella pneumonia, 10 h cultivation at 37° C.) came to 50 µg/mL. Further, in the assay on Enterobacter cloacae (Enterobacter cloacae, 10 h cultivation at 37° C.), the “MIC against E. cloacae” value stood at 25 µg/mL. In the assay with Aeromonas hydrophila (Aeromonas hydrophila, 10 h cultivation at 37° C.), the “MIC against A. hydrophila” value amounted to 25 µg/mL. In addition, in the assay on Citrobacter diversus (Citrobacter diversus, 10 h cultivation at 37° C.), the “MIC against C. diversus” value turned out to be 12.5 µg/mL. Further, the “MIC against M. catarrhalis” value against Moraxella catarrhalis (Moraxella catarrhalis, 10 h cultivation at 37° C.) was found to be 12.5 µg/mL. In the assay on Proteus mirabilis (Proteus mirabilis, 10 h cultivation at 37° C.), the “MIC against P. mirabilis” value came out at 12.5 µg/mL. Further, in the assay with Proteus vulgaris (Proteus vulgaris, 10 h cultivation at 37° C.), the “MIC against P. vulgaris” value worked out at 12.5 µg/mL. For the same substance, the “MIC against S. marcescens” value with Serratia marcescens (Serratia marcescens, 10 h cultivation at 37° C.) is 12.5 µg/mL.
“PRT256 (CHLHARCVSQEGVARCRCLDGFEGDGFSC; listed as Homo sapiens)” registered an MIC in the assay on E. coli DH5α of 25 µg/mL. Also, the “MIC (μg/mL) E. coli BL21” value in the assay on E. coli BL21 (10 h cultivation at 37° C.) was determined as 12.5 µg/mL. Moreover, the “MIC (μg/mL) P. aeruginosa” value with Pseudomonas aeruginosa (P. aeruginosa, 10 h cultivation at 37° C.) amounted to 25 µg/mL. The “MIC (μg/mL) K. pneumonia” value against Klebsiella pneumonia (K. pneumonia, 10 h cultivation at 37° C.) was determined as 12.5 µg/mL. In addition, the “MIC (μg/mL) E. cloacae” value with Enterobacter cloacae (E. cloacae, 10 h cultivation at 37° C.) came to 25 µg/mL. Also, in the assay with Aeromonas hydrophila (A. hydrophila, 10 h cultivation at 37° C.), the “MIC (μg/mL) A. hydrophila” value is 12.5 µg/mL. Further, the “MIC (μg/mL) C. diversus” value in the assay on Citrobacter diversus (C. diversus, 10 h cultivation at 37° C.) worked out at 25 µg/mL. Further, in the assay with Moraxella catarrhalis (M. catarrhalis, 10 h cultivation at 37° C.), the “MIC (μg/mL) M. catarrhalis” value was 12.5 µg/mL. Also, the “MIC (μg/mL) P. mirabilis” value in the assay with Proteus mirabilis (P. mirabilis, 10 h cultivation at 37° C.) stood at 25 µg/mL. Further, in the assay on Proteus vulgaris (P. vulgaris, 10 h cultivation at 37° C.), the “MIC (μg/mL) P. vulgaris” value was 12.5 µg/mL. Also, in the assay with Serratia marcescens (S. marcescens, 10 h cultivation at 37° C.), the “MIC (μg/mL) S. marcescens” value is 25 µg/mL.
In the assay on E. coli DH5α, “PRT738 (FHTRCEEDNGGCSHLCLLSPSEPFYTCACPTGVQLQDNGRTCK; listed as Homo sapiens)” came in with an MIC of 50 µg/mL. Also, the “MIC E. coli BL21” value in the assay on E. coli BL21 (96-well plate, 37° C., 10 h) came to 12.5 µg/mL. Further, in the assay with Pseudomonas aeruginosa (96-well plate, 37° C., 10 h), the “MIC P. aeruginosa” value is 25 µg/mL. In the assay on Klebsiella pneumonia (96-well plate, 37° C., 10 h), the “MIC K. pneumonia” value was found to be 50 µg/mL. Also, the “MIC E. cloacae” value against Enterobacter cloacae (96-well plate, 37° C., 10 h) is 12.5 µg/mL. For the same substance, the “MIC A. hydrophila” value in the assay with Aeromonas hydrophila (96-well plate, 37° C., 10 h) amounted to 50 µg/mL. For the same substance, the “MIC C. diversus” value in the assay with Citrobacter diversus (96-well plate, 37° C., 10 h) stood at 12.5 µg/mL. The “MIC M. catarrhalis” value in the assay on Moraxella catarrhalis (96-well plate, 37° C., 10 h) came out at 25 µg/mL. Moreover, the “MIC P. mirabilis” value in the assay with Proteus mirabilis (96-well plate, 37° C., 10 h) came out at 50 µg/mL. In addition, the “MIC P. vulgaris” value in the assay on Proteus vulgaris (96-well plate, 37° C., 10 h) was determined as 25 µg/mL. In addition, in the assay with Serratia marcescens (96-well plate, 37° C., 10 h), the “MIC S. marcescens” value came to 25 µg/mL.
In turn, “PRT135 (PGHCSSYGSICHNGGKCVEKHNGYLCDCTNSPYEGPFCK; listed as Homo sapiens)” had an MIC against E. coli DH5α of 25 µg/mL. The “MIC (μg/mL) E. coli BL21” value in the assay on E. coli BL21 (96-well plate, 37° C., 10 h) was 12.5 µg/mL. Also, the “MIC (μg/mL) P. aeruginosa” value against Pseudomonas aeruginosa (setting [1]) is 25 µg/mL. Also, the “MIC (μg/mL) K. pneumonia” value with Klebsiella pneumonia (setting [2]) was found to be 12.5 µg/mL. Moreover, in the assay with Enterobacter cloacae (setting [3]), the “MIC (μg/mL) E. cloacae” value amounted to 25 µg/mL. In addition, the “MIC (μg/mL) A. hydrophila” value with Aeromonas hydrophila (setting [4]) worked out at 12.5 µg/mL. Further, the “MIC (μg/mL) C. diversus” value in the assay with Citrobacter diversus (setting [5]) came out at 25 µg/mL. Also, the “MIC (μg/mL) M. catarrhalis” value in the assay on Moraxella catarrhalis (setting [6]) was determined as 50 µg/mL. Also, in the assay with Proteus mirabilis (setting [7]), the “MIC (μg/mL) P. mirabilis” value amounted to 25 µg/mL. For the same substance, the “MIC (μg/mL) P. vulgaris” value against Proteus vulgaris (setting [8]) stood at 12.5 µg/mL. Moreover, in the assay with Serratia marcescens (setting [9]), the “MIC (μg/mL) S. marcescens” value was determined as 50 µg/mL.
